Measurements from US20140242093A1, “METHODS AND COMPOSITIONS FOR MODULATING THE INNATE IMMUNE RESPONSE AND/OR MYOGENESIS IN A MAMMALIAN SUBJECT” (FRED HUTCHINSON CANCER RESEARCH CENTER, priority 2011, published 2014).

Tested on: control human primary myoblasts
Assay: Expression microarray of primary myoblasts transduced with lentivirus carrying DUX4-fl, DUX4-s or GFP
Experimental: Primary human myoblasts were collected and cultured as previously described (Snider et al., 2010). Primary myoblasts were maintained at or below 70% confluency for proliferation. For differentiation, cells were allowed to reach 95-100% confluency in growth medium. Once confluency was reached, the cells were changed to differentiation medium (F10 media supplemented with 1% horse serum, 10 μg/mL insulin, and 10 μg/mL transferrin, penicillin/streptomycin) and maintained for 4 days. Human RD cells were grown in DMEM in 10% bovine calf serum (Hyclone) and penicillin/streptomycin. The primary myoblasts were transduced with lentivirus carrying DUX-fl, DUX4- or GFP (MOI=15).
Expression microarrays were performed on the transduced cells at 24 hours after transduction as follows. […] Samples were analyzed by Illumina Human Whole Genome microarrays. Probe intensities were corrected, normalized, and summarized by the Lumi package of Bioconductor (Du et al., 2008). Differentially expressed genes were identified by the LIMMA package of Bioconductor (Wettenhall and Smyth, 2004). Gene set enrichment analysis (GSEA) was performed using the Bioconductor GOstats package (Falcon and Gentleman, 2007).

DUX4-fl: full-length DUX4 protein (SEQ ID NO:110), expressed from lentiviral or pCS2 vectors or in vitro translated
full_fc PRAMEF13 (log2 fc vs lenti-GFP, 24 h): 7.422 | full_fc PRAMEF15 (log2 fc vs lenti-GFP, 24 h): 7 | full_fc PRAMEF17 (log2 fc vs lenti-GFP, 24 h): 4.223 | full_fc PRAMEF20 (log2 fc vs lenti-GFP, 24 h): 4.795 | full_fc RFPL1 (log2 fc vs lenti-GFP, 24 h): 6.264 | full_fc RFPL1S (log2 fc vs lenti-GFP, 24 h): 8.396 | full_fc RFPL2 (log2 fc vs lenti-GFP, 24 h): 7.293 | full_fc RFPL3 (log2 fc vs lenti-GFP, 24 h): 8.144 | full_fc RFPL4A (log2 fc vs lenti-GFP, 24 h): 4.348 | full_fc RFPL4B (log2 fc vs lenti-GFP, 24 h): 8.34 | full_fc RN5S9 (log2 fc vs lenti-GFP, 24 h): 4.191 | full_fc SFRS2B (log2 fc vs lenti-GFP, 24 h): 4.215 | full_fc SLC34A2 (log2 fc vs lenti-GFP, 24 h): 5.514 | full_fc SPRYD5 (log2 fc vs lenti-GFP, 24 h): 8.045 | full_fc THOC4 (log2 fc vs lenti-GFP, 24 h): 4.035 | full_fc TPRX1 (log2 fc vs lenti-GFP, 24 h): 4.483 | full_fc TRIM43 (log2 fc vs lenti-GFP, 24 h): 5.806 | full_fc TRIM48 (log2 fc vs lenti-GFP, 24 h): 7.88 | full_fc TRIM49 (log2 fc vs lenti-GFP, 24 h): 6.551 | full_fc TRIM53 (log2 fc vs lenti-GFP, 24 h): 4.778 | full_fc TRIM64 (log2 fc vs lenti-GFP, 24 h): 4.943 | full_fc ZNF217 (log2 fc vs lenti-GFP, 24 h): 4.114 | full_fc ZNF296 (log2 fc vs lenti-GFP, 24 h): 5.536 | full_fc ZNF705A (log2 fc vs lenti-GFP, 24 h): 6.832 | full_fc ZSCAN4 (log2 fc vs lenti-GFP, 24 h): 8.322 | number of genes increased 32-fold or more (log 2fc≧5): 72 genes | Log2 Fc AMACR (vs lenti-GFP, 24 h): 2.7 log2 | Log2 Fc ARIH1 (vs lenti-GFP, 24 h): 2.2 log2 | Log2 Fc ARS2 (vs lenti-GFP, 24 h): 2.6 log2 | Log2 Fc CBARA1 (vs lenti-GFP, 24 h): 2.1 log2 | Log2 Fc CD24 (vs lenti-GFP, 24 h): 2.6 log2 | Log2 Fc CSAG3 (vs lenti-GFP, 24 h): 5.9 log2 | Log2 Fc CSE1L (vs lenti-GFP, 24 h): 2.9 log2 | Log2 Fc CWC15 (vs lenti-GFP, 24 h): 2.6 log2 | Log2 Fc CXADR (vs lenti-GFP, 24 h): 2.5 log2 | Log2 Fc CXCR4 (vs lenti-GFP, 24 h): 2.0 log2 | Log2 Fc DBR1 (vs lenti-GFP, 24 h): 3.4 log2 | Log2 Fc DEFB103B (vs lenti-GFP, 24 h): 6.4 log2 | Log2 Fc FBXO33 (vs lenti-GFP, 24 h): 3.2 log2 | Log2 Fc FGFR3 (vs lenti-GFP, 24 h): 3.1 log2 | Log2 Fc FLJ45337 (vs lenti-GFP, 24 h): 3.7 log2 | Log2 Fc GTF2F1 (vs lenti-GFP, 24 h): 3.2 log2 | Log2 Fc HNRNPCL1 (vs lenti-GFP, 24 h): 3.5 log2 | Log2 Fc HOXB2 (vs lenti-GFP, 24 h): 2.2 log2 | Log2 Fc HSPA2 (vs lenti-GFP, 24 h): 3.7 log2 | Log2 Fc ID2 (vs lenti-GFP, 24 h): 2.3 log2 | Log2 Fc IFRD1 (vs lenti-GFP, 24 h): 3.0 log2 | Log2 Fc JUP (vs lenti-GFP, 24 h): 3.2 log2 | Log2 Fc KHDC1L (vs lenti-GFP, 24 h): 8.0 log2 | Log2 Fc MBD3L2 (vs lenti-GFP, 24 h): 7.6 log2 | Log2 Fc MED26 (vs lenti-GFP, 24 h): 2.1 log2 | Log2 Fc MGC10997 (vs lenti-GFP, 24 h): 2.4 log2 | Log2 Fc PABPN1 (vs lenti-GFP, 24 h): 2.6 log2 | Log2 Fc PELI1 (vs lenti-GFP, 24 h): 2.9 log2 | Log2 Fc PNMA6B (vs lenti-GFP, 24 h): 3.6 log2 | Log2 Fc PRAMEF1 (vs lenti-GFP, 24 h): 8.1 log2 | Log2 Fc PVRL3 (vs lenti-GFP, 24 h): 2.2 log2 | Log2 Fc RMRP (vs lenti-GFP, 24 h): 2.3 log2 | Log2 Fc RNGTT (vs lenti-GFP, 24 h): 2.0 log2 | Log2 Fc RPPH1 (vs lenti-GFP, 24 h): 2.0 log2 | Log2 Fc RRN3 (vs lenti-GFP, 24 h): 2.1 log2 | Log2 Fc SFRS2B (vs lenti-GFP, 24 h): 4.2 log2 | Log2 Fc SFRS17A (vs lenti-GFP, 24 h): 2.5 log2 | Log2 Fc SIAH1 (vs lenti-GFP, 24 h): 3.7 log2 | Log2 Fc SLC2A14 (vs lenti-GFP, 24 h): 2.4 log2 | Log2 Fc SLC34A2 (vs lenti-GFP, 24 h): 5.5 log2 | Log2 Fc SNIP1 (vs lenti-GFP, 24 h): 2.1 log2 | Log2 Fc SON (vs lenti-GFP, 24 h): 2.1 log2 | Log2 Fc SPRYD5 (vs lenti-GFP, 24 h): 8.0 log2 | Log2 Fc SPTY2D1 (vs lenti-GFP, 24 h): 3.3 log2 | Log2 Fc TFIP11 (vs lenti-GFP, 24 h): 3.2 log2 | Log2 Fc THOC4 (vs lenti-GFP, 24 h): 4.0 log2 | Log2 Fc TPRX1 (vs lenti-GFP, 24 h): 4.5 log2 | Log2 Fc TRIM23 (vs lenti-GFP, 24 h): 2.2 log2 | Log2 Fc TRIM43 (vs lenti-GFP, 24 h): 5.8 log2 | Log2 Fc USP29 (vs lenti-GFP, 24 h): 2.6 log2 | Log2 Fc ZNF217 (vs lenti-GFP, 24 h): 4.1 log2 | Log2 Fc ZNF705A (vs lenti-GFP, 24 h): 6.8 log2 | Log2 Fc ZNHIT6 (vs lenti-GFP, 24 h): 3.5 log2 | Log2 Fc ZSCAN2 (vs lenti-GFP, 24 h): 2.2 log2 | Log2 Fc ZSCAN4 (vs lenti-GFP, 24 h): 8.3 log2
